# Where a name gives a salt, the structure may show the parent alone.
# What was measured:
# [1] = biological target: SirT1 (Homo sapiens (Human), UniProt Q96EB6); test: In vitro deacetylation assay (Fluor de Lys SirT1 Fluorescent Activity Assay); format: biochemical; details: FdL substrate 7 μM, NAD+ 1 mM, 37° C., 1 hour; read-out: SIRT1 inhibition IC50
# Description: Enzymatic SirT1 assays were carried out using purified components in the Fluor de Lys Fluorescent Assay Systems (Biomol kit AK555) and following the manufacturers instructions. […] Reactions were carried out at 37° C. for 1 hour.
# Deacetylation and developer reactions were carried out for 1 hour at 37° C.
# [2] = system: p53-dependent transcription; test: p53-dependent transcription in T22 RGC-ΔFos-lacZ cells (primary screen, beta-galactosidase/CPRG); format: cell-based; details: for Bioactivity (relative to JJ91): p53-dependent transcription in T22 RGC-ΔFos-lacZ cells, JJ91 activity taken as 100%
# Description: T22 RGC-ΔFos-lacZ cells expressing beta-galactosidase under the control of a p53-dependent promoter were used and are described by Lu X, Burbidge S A, Griffin S, and Smith H M in Oncogene. […] DMSO should not exceed 1:100 final concentration in medium. Use an untreated control and a positive control treated with 5 ng/ml actinomycin D. Total volume=100 μl • Remove medium from 96 well plate after 18 h and add 50 μl 1× lysis buffer (Promega) per well • Shake for 1 hour at room temperature (can freeze plate at −80° C. until ready to use) • Add 150 μl CPRG reaction mix per well, • Preparation of 15 ml CPRG reaction mix: • 15 ml 0.1M phosphate buffer, pH7.5 • 300 μl CPRG 4 mg/ml (Boehringer-Mannheim) 80 μl (0.1 M MgCl2/0.1 M β-mercaptoethanol) • Incubate 4 hours at 37° C. in a damp chamber. If colour changes from yellow to pink, this indicates p53 activity • Transfer 100 μl from each well to a new 96 well plate. This prevents cell debris from interfering with absorbance reading.
# Fold induction of p53-dependent transcription was measured.
# [3] = system: SKNSH-DDp53 cells; test: FACS analysis of neuroblastoma cells with inactivated p53; format: cell-based; details: 10 μM, 48 hours, SKNSH cells with inactive p53
# Description: Neuroblastoma cell lines SKNSH-CMVNeo (with functional p53) and SKNSH-DDp53 (inactivated p53) were used and are described by Smart P, Lane E B, Lane D P, Midgley C, Vojtesek B, Lain S. in Oncogene. 1999 Dec. 2; 18(51):7378-86.
# • Seed 50,000 cells per well of a 6 well plate in DMEM-10% FCS Day 2 • Add drugs to cells Day 4 • Add bromodeoxyuridine (BrdU) to 30 μM and incubate cells for 20 minutes. • Remove media from cells and transfer to a 13 ml Falcon tube. Rinse cells with PBS and transfer this also. Trypsinise cells and transfer to tube then finally rinse with PBS again. Once all transferred to tube, pellet cells at 1500 rpm for 5 minutes. • Resuspend cells in 1 ml of PBS and add drop wise to 3 ml of ethanol while vortexing. Incubate for a minimum of 1-2 hours at 4° C. (no maximum). […] Keep on ice in the dark until analysed on the FACScan. • Measure DNA content (propidium iodide fluorescence) and DNA synthesis (BrdU incorporation) by FACScan. […]
# Cells were analysed by FACS analysis.
# [4] = system: p53; test: Western blotting of MCF-7 cell extracts; format: cell-based; details: MCF-7 cells, 10 μM
# Description: • Seed 50,000 cells per well of a 6 well plate in DMEM-10% FCS Day 2 • Add drugs to cells Day 4 • Add bromodeoxyuridine (BrdU) to 30 μM and incubate cells for 20 minutes. • Remove media from cells and transfer to a 13 ml Falcon tube. Rinse cells with PBS and transfer this also. Trypsinise cells and transfer to tube then finally rinse with PBS again. Once all transferred to tube, pellet cells at 1500 rpm for 5 minutes. • Resuspend cells in 1 ml of PBS and add drop wise to 3 ml of ethanol while vortexing. Incubate for a minimum of 1-2 hours at 4° C. (no maximum). Day 5 • Pellet by centrifugation at 2,500 rpm for 5 minutes then pour off supernatant. • Prepare 2 ml fresh pepsin solution per tube at 1 mg/ml in 30 mM HCl (pH 1.5) and prewarm to 37° C. • Add 2 ml prewarmed pepsin solution to each tube and mix for 30 mins at 37° C. • Pellet by centrifugation at 2500 rpm for 5 minutes then pour off supernatant (pellets will be clear) • Add 1 ml 2M HCl for 15-20 mins at room temperature (stock bottle is 11.6 M). • Timing is critical—incubating for long periods results in broad DNA peaks. • Top up with PBS then pellet as before. • Wash again with PBS then once in antibody buffer, pelleting cells each time. • Antibody buffer: PBS, 0.5% BSA, 0.5% Tween-20 • Resuspend pellet into 200 μl of Becton Dickinson anti-BrdU antibody diluted 1:50 in antibody buffer. Incubate for 1 h at room temperature. • Wash in PBS and pellet cells. • Resuspend pellet in 200 μl Sigma FITC antibody (#3008) diluted 1:64 in antibody buffer. Incubate for 30 min at room temperature in the dark to prevent the antibody fading. • Wash in PBS and pellet cells. • Resuspend final pellet in 500 μl PBS containing 25 μg/ml propidium iodide counter stain. Keep on ice in the dark until analysed on the FACScan. • Measure DNA content (propidium iodide fluorescence) and DNA synthesis (BrdU incorporation) by FACScan. 3. […]
# Levels of the p53 downstream target p21 are increased Actin was analysed as a loading control.
# [5] = Blood levels after administration to mice (LC-MS/MS); format: in vivo; details: 5 mg/kg, intraperitoneal injection
# Description: Blood levels were determined at the times shown by LC-MS/MS above and the values shown are the means±SD for three determinations.
# [6] = system: BL2 Burkitt lymphoma cells; test: Survival of BL2 Burkitt lymphoma cells; format: cell-based; details: 1 μM to 10 μM in 70% cyclodextrin, 2 hours exposure daily for six days
# Description: At this time, the number of live cells were counted. After this short exposure, cells were washed to remove the compound. This treatment was repeated daily for six days. Experiments were performed in triplicate and standard deviations indicated.
# [7] = system: BL2 Burkitt lymphoma xenograft tumours; test: BL2 Burkitt lymphoma xenograft tumours in SCID mice; format: in vivo; details: 92 mg/kg daily by intraperitoneal injection, measured to day 11
# Description: Referring to FIG. 7, BL2 Burkitt lymphoma xenograft tumours in SCID mice were established for 7 days until tumours were palpable. […] Tumour sizes were measured on the day of injection (day 1) and on days 4, 8 and 11 post-injection.
# Sequence of SirT1 (Q96EB6 whole entry): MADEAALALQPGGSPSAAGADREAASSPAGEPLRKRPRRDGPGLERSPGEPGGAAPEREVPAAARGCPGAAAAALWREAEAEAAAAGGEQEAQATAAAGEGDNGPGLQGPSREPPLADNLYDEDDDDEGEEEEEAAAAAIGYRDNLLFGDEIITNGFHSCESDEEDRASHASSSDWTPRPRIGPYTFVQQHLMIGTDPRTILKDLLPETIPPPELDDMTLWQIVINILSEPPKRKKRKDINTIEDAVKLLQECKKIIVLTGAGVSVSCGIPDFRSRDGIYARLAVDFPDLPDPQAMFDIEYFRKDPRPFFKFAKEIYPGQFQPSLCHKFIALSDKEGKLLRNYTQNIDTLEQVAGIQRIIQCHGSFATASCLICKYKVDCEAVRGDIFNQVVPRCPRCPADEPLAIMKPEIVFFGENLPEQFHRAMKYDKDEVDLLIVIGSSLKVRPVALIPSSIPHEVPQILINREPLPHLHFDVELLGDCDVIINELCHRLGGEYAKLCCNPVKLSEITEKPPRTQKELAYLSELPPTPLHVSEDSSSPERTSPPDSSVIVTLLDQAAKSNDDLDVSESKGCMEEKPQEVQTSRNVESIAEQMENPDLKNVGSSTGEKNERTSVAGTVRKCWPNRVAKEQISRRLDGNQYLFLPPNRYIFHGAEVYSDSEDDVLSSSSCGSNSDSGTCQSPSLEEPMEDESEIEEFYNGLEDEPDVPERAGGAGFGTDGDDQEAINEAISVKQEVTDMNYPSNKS
Structure (SMILES),IC50 [1],Bioactivity (relative to JJ91) [2],other results
"CN(C)CCCCCC(=O)Nc1ccc(NC(=S)NC(=O)c2ccc(C(C)(C)C)cc2)cc1 [Compound 6, 6-Dimethylamino-hexanoic acid {4-[3-(4-tert-butyl-benzoyl)-thioureido]-phenyl}-amide hydrochloride]",16 ± 3 µM,,
"CC(=O)Nc1ccc(NC(=S)NC(=O)c2ccc(C(C)(C)C)cc2)cc1 [JJ91, N-{4-[3-(4-tert-Butyl-benzoyl)-thioureido]-phenyl}-acetamide]",,,"p53 transcription factor function ([2]; T22 RGC-ΔFos-lacZ cells treated 16 hours): activates p53's transcription factor function; effects on DNA synthesis and cell death [3]: not observed; levels of the p53 downstream target p21 [4]: increased; p53 levels [4]: rapidly increased; levels of p53 phosphoserine-15 ([4]; compared with mitomycin C 10 μM): not as high as those observed with the genotoxic gent mitomycin C; concentrations in blood [5]: reach micromolar concentrations in blood; weight or behavioural changes [5]: do not cause significant weight or behavioural changes; half-life ([5]; mouse, ip, blood): ~1.3 h; BL2 cell survival [6]: largely reduced; growth of BL2 xenograft tumours [7]: reduces growth of BL2 xenograft tumours"
"CC(C)(C)c1ccc(C(=O)NC(=S)Nc2ccc(NC(=O)CCCCBr)cc2)cc1 [JH140, 5-bromo-pentanoic acid {4-[3-(4-tert-butyl-benzoyl)-thioureido]-phenyl}-amide]",,Active (87.5%),
CC(C)(C)c1ccc(C(=O)NC(=S)Nc2ccc(NC(=O)CCCCN3CCOCC3)cc2)cc1 [JH156],,Active (75.4%),
CC(C)C(=O)Nc1ccc(NC(=S)NC(=O)c2ccc(C(C)(C)C)cc2)cc1 [Compound 7322366],,Active (81.2%),
CC(C)(C)c1ccc(C(=O)NC(=S)Nc2ccc(NC(=O)c3ccccc3)cc2)cc1 [JH151],,Active (106.1%),
"CN(C)CCCCCCCC(=O)Nc1ccc(NC(=S)NC(=O)c2ccc(C(C)(C)C)cc2)cc1 [Compound 7, 8-Dimethylamino-octanoic acid {4-[3-(4-tert-butyl-benzoyl)-thioureido]-phenyl}-amide hydrochloride]",25 ± 10 µM,,
"CN(C)CCOCCOCCOCCOCCOCC(=O)Nc1ccc(NC(=S)NC(=O)c2ccc(C(C)(C)C)cc2)cc1 [Compound 8, N-{4-[3-(4-tert-Butyl-benzoyl)-thioureido]-phenyl}-2-[2-(2-{2-[2-(2-dimethylamino-ethoxy)-ethoxy]-ethoxy}-ethoxy)-ethoxy]-acetamide hydrochloride]",> 60 µM,,
"CC(C)(C)OC(=O)Nc1ccc(NC(=S)NC(=O)c2ccc(C(C)(C)C)cc2)cc1 [Compound 21, {4-[3-(4-tert-Butyl-benzoyl)-thioureido]-phenyl}-carbamic acid tert-butyl ester]",,,activity in the p53 activation assay (in words) [2]: very good activity
CC(C)(C)c1ccc(C(=O)NC(=S)Nc2ccc(NC(=O)CCCCN3CCOCC3)cc2)cc1.Cl [JH156HCl],,Active (59.6%),
"CN(C)CCCCC(=O)Nc1ccc(NC(=O)NC(=O)c2ccc(C(C)(C)C)cc2)cc1 [Compound 24, 5-Dimethylamino-pentanoic acid {4-[3-(4-tert-butyl-benzoyl)-ureido]-phenyl}-amide hydrochloride]",29 µM,,
"CC(C)(C)c1ccc(C(=O)NC(=S)Nc2ccc(N)cc2)cc1 [JH129, 1-(4-Amino-phenyl)-3-(4-tert-butyl-benzoyl)-thiourea]",,Active (<),
"CN(C)CCCC(=O)Nc1ccc(NC(=S)NC(=O)c2ccc(C(C)(C)C)cc2)cc1 [Compound 5, N-{4-[3-(4-tert-Butyl-benzoyl)-thioureido]-phenyl}-4-dimethylamino-butyramide hydrochloride]",32 ± 9 µM,,

# Reference: patent US8501991B2, “P53 activating compounds” (University Court of the University of Dundee, priority 2006, dated 2013)
